Data from patent publication US20260347355A1, “COMPOUNDS” (Hoffmann-La Roche Inc., priority 2023, published 2026).
pIC50: −log10 of the molar value.

Tests used:
NLRP3 [1] = target: T1, NLRP3 (Homo sapiens, UniProt Q96P20); assay: THP-1 cells pyroptosis assay (LPS primed, nigericin stimulated, resazurin readout); format: cell-based; parameters: endogenous in cells; host or cells: THP-1 cells (ATCC TIB-202); conditions: THP-1 pyroptosis Assay IC50, THP-1 cells, 1 μg/ml LPS, 5 μM nigericin, 3 h compound pre-incubation
Experimental: Therefore, it is anticipated that inhibitors of NLRP3 will block pyroptosis, as well as the release of pro-inflammatory cytokines (e.g. IL-1β) from the cell.
THP-1 Cells: Culture and Preparation
The cells were routinely passaged and grown to confluency (~10^6cells/ml). On the day of the experiment, THP-1 cells were harvested and resuspended into RPMI medium (without FBS). […] To this diluted cell solution was added LPS (Sigma #L4524) to give a 1 μg/ml Final Assay Concentration (FAC). 40 μl of the final preparation was aliquoted into each well of a 96-well plate. The plate thus prepared was used for compound screening.
THP-1 Cells Pyroptosis Assay
The following method step-by-step assay was followed for compound screening.
(§1) Incubate for 3 hours at 37 °C, 5% CO2
Add 5 μl nigericin (Sigma #N7143) (FAC 5 μM) to all wells
(§2) Incubate for 1 hr at 37 °C, 5% CO2
At the end of the incubation period, spin plates at 300×g for 3 mins and remove supernatant
Then add 50 μl of resazurin (Sigma #R7017) (FAC 100 μM resazurin in RPMI medium without FBS) and incubate plates for a further 1-2 hours at 37 °C and 5% CO2
(§3) IC50 data is fitted to a non-linear regression equation (log inhibitor vs response-variable slope 4-parameters)

NLRP3 [2] = target: T1, NLRP3; assay: Human whole blood IL-1β release assay (LPS, nigericin; AlphaLISA); format: cell-based; parameters: Human whole blood in Li-heparin tubes was obtained from healthy donors from a volunteer donor panel; from tissue; host or cells: human whole blood from healthy volunteer donors; conditions: 1 μg/ml LPS, 10 μM nigericin, 3 h compound pre-incubation
Experimental: Human Whole Blood IL-1β Release Assay
For systemic delivery, the ability to inhibit NLRP3 when the compounds are present within the bloodstream is of great importance. For this reason, the NLRP3 inhibitory activity of a number of compounds in human whole blood was investigated in accordance with the following protocol.
Human whole blood in Li-heparin tubes was obtained from healthy donors from a volunteer donor panel.
as §1
Add 10 μl nigericin (Sigma #N7143) (10 μM FAC) to all wells
as §2
At the end of the incubation period, spin plates at 300×g for 5 mins to pellet cells and remove 20 μl of supernatant and add to 96-well v-bottom plates for IL-1β analysis (note: these plates containing the supernatants can be stored at −80 °C to be analysed at a later date)
IL-1β was measured according to the manufacturer protocol (Perkin Elmer-AlphaLisa IL-1 Kit AL220F-5000)
as §3

NLRP3 [3] = target: T1, NLRP3; parameters: THP-1 cells (ATCC #TIB-202) were grown in RPMI; endogenous in cells; host or cells: THP-1 cells (ATCC TIB-202); conditions: cited from earlier work
CAPS = conditions: biologic agents that target IL-1; cited from earlier work
[4] = target: T2, human ether-i-go-go-related gene (hERG) cardiac potassium channel (Homo sapiens, UniProt Q12809); assay: hERG screening assay (automated patch clamp, CHO crelox hERG cells); format: cell-based; conditions: SynchroPatch 384, 35-37 °C, 0.1 Hz, read-out: hERG inhibition IC20
T2 construct: whole-cell automated patch clamp, SynchroPatch 384, 35-37 °C
Source text: In the drug development process of small molecules, one of the most frequent adverse side effects, leading to the failure of drugs, is the cardiac arrhythmias. Such failure is often related to the capacity of the drug to inhibit the human ether-i-go-go-related gene (hERG) cardiac potassium channel. Having no or low inhibition of the hERG cardiac potassium channel is therefore considered as beneficial.
The CHO crelox hERG cell line (ATCC reference Nr. PTA-6812, female Chinese hamster cells) was generated and validated at Roche. Ready-to-use frozen instant CHO-hERG cells were cryopreserved at Evotec (Germany) and used directly in the experiments.
The extracellular solution contains (in mM): NaCl 150; KCl 4; CaCl2 1; MgCl2 1; HEPES 10; pH 7.2-7.4 with NaOH, osmolarity 290-330 mOsm. […]
The effects of a compound on hERG K+-currents parameters will be evaluated at 2 concentrations in at least 4 cells.
The hERG test is performed using automated patch clamp system SynchroPatch® 384 (Nanion Technologies GmbH, Germany). K+ currents are measured with the patch-voltage-clamp technique in the whole-cell configuration at 35-37 °C. […]
The amplitudes of IKhERG were recorded in each concentration of drug and they were compared to the vehicle control values (taken as 100%) to define fractional blocks. […]

NLRC4 = conditions: cited from earlier work
NLRP1 = conditions: cited from earlier work

T1 sequence (Q96P20 whole entry): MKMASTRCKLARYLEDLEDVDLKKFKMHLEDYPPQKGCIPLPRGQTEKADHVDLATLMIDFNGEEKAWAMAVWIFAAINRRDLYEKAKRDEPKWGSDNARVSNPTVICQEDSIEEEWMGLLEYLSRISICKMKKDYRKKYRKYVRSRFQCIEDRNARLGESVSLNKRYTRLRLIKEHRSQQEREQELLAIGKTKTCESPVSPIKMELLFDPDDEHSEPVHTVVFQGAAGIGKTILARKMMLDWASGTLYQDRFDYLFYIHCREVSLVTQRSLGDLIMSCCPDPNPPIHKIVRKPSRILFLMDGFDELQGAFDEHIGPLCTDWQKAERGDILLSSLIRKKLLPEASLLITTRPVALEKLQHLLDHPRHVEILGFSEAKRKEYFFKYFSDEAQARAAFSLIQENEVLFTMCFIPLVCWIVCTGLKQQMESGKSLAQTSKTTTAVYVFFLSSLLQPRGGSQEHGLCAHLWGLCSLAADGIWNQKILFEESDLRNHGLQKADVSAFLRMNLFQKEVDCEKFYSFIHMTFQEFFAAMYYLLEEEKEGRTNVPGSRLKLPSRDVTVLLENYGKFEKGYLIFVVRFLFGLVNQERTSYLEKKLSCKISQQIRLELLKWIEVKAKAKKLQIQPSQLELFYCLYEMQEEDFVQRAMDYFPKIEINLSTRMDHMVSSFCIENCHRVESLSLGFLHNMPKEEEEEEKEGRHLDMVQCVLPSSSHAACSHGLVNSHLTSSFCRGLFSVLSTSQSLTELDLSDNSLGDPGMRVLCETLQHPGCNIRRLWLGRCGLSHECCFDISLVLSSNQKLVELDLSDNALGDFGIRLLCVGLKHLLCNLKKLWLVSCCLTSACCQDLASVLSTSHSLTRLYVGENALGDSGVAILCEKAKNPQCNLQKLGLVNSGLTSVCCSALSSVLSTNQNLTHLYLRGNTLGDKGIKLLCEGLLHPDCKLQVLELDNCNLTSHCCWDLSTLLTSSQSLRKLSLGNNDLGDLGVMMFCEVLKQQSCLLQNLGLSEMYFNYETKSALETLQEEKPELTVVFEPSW
T2 sequence (Q12809 whole entry): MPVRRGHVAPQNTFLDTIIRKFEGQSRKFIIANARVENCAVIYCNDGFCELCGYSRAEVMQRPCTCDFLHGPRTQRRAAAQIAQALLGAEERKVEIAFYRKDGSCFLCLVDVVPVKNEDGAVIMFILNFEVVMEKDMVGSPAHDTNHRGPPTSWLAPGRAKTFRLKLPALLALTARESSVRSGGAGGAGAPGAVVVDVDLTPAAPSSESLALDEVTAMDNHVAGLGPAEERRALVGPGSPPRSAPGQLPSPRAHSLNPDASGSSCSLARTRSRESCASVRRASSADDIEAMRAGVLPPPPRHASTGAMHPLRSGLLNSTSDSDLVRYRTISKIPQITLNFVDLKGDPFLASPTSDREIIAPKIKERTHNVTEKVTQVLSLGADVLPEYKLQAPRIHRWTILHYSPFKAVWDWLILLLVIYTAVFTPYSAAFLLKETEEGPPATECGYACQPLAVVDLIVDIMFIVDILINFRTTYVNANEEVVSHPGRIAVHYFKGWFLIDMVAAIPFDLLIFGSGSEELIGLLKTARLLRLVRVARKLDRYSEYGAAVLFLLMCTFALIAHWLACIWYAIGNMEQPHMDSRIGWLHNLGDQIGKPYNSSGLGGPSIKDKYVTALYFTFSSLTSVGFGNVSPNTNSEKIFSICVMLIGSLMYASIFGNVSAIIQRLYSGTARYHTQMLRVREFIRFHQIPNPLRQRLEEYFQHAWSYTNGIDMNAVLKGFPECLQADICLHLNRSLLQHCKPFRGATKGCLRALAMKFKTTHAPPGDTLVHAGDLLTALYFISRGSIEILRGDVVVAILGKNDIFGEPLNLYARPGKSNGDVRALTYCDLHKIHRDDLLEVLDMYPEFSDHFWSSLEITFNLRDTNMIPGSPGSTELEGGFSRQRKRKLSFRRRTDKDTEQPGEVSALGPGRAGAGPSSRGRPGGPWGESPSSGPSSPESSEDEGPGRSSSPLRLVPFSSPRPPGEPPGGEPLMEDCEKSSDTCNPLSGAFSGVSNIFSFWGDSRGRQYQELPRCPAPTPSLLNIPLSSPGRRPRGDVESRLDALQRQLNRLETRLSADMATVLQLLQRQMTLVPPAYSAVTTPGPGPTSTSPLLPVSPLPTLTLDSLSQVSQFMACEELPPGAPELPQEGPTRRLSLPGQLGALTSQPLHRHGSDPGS

Compound | pIC50 (NLRP3 [1]) | pIC50 (NLRP3 [2]) | also measured
Oc1c(-c2nnc(N[C@H]3CC[C@H](O)CC3)c3cnccc23)ccc2c1CCO2 [Example 9, trans-5-[4-[(4-Hydroxycyclohexyl)amino]pyrido[3,4-d]pyridazin-1-yl]-2,3-dihydrobenzofuran-4-ol] | 7.25 | 7.37 | 
Oc1c(-c2nnc(N[C@H]3CC[C@@H](O)CC3)c3cnccc23)ccc2c1CCO2 [Example 11, cis-5-[4-[(4-Hydroxycyclohexyl)amino]pyrido[3,4-d]pyridazin-1-yl]-2,3-dihydrobenzofuran-4-ol] | 7.24 | 7.29 | 
COCc1cc2c(c(O)c1-c1nnc(N[C@@H]3CCCC[C@H]3O)c3cnccc13)CCO2 [Example 8, 5-[4-[[(1R,2R)-2-Hydroxycyclohexyl]amino]pyrido[3,4-d]pyridazin-1-yl]-6-(methoxymethyl)-2,3-dihydrobenzofuran-4-ol] | 7.68 |  | 
C=C1C(=O)O[C@@H]2[C@H]3O[C@]3(C)CC/C=C(\C)CC[C@@H]12 [parthenolide] |  |  | NLRP3 inhibition, potency (NLRP3 [3]): limited potency; NLRP3 inhibition, specificity (NLRP3 [3]): nonspecific
anakinra: recombinant IL-I receptor antagonist |  |  | success in the treatment of CAPS (CAPS): proven successful in the treatment of CAPS
C[S+](C)[O-] [dimethyl sulfoxide (DMSO), dimethyl sulfoxide] |  |  | NLRP3 inhibition, potency (NLRP3 [3]): limited potency; NLRP3 inhibition, specificity (NLRP3 [3]): nonspecific
Oc1c(-c2nnc(NCC3CCCO3)c3cnccc23)ccc2c1CCO2 (single isomer, unassigned) [Example 6A] | 7.24 | 7.33 | 
rilonacept |  |  | success in the treatment of CAPS (CAPS): proven successful in the treatment of CAPS
Oc1c(-c2nnc(NCC3CCCO3)c3cnccc23)ccc2c1CCO2 (single isomer, unassigned) [Example 6B] | 7.20 | 7.23 | 
Oc1c(-c2nnc(N[C@@H]3CCOC[C@@H]3O)c3cnccc23)ccc2c1CCO2 [Example 15, 5-[4-[[(3R,4R)-3-Hydroxytetrahydropyran-4-yl]amino]pyrido[3,4-d]pyridazin-1-yl]-2,3-dihydrobenzofuran-4-ol] |  |  | IC20 [4]: > 10 µM
canakinumab: neutralizing IL-1β antibody |  |  | success in the treatment of CAPS (CAPS): proven successful in the treatment of CAPS
Oc1c(-c2nnc(NCC3CCOC3)c3cnccc23)ccc2c1CCO2 (racemic) [Example 5, 5-[4-[[rac-(3S)-Tetrahydrofuran-3-yl]methylamino]pyrido[3,4-d]pyridazin-1-yl]-2,3-dihydrobenzofuran-4-ol] | 7.42 | 7.43 | 
Oc1c(-c2nnc(N[C@H]3CCCC[C@@H]3O)c3cnccc23)ccc2c1CCO2 (relative stereo) [Example 2B, 5-[4-[[rel-(1S,2S)-2-Hydroxycyclohexyl]amino]pyrido[3,4-d]pyridazin-1-yl]-2,3-dihydrobenzofuran-4-ol] |  |  | IC20 [4]: > 10 µM
Oc1c(-c2nnc(NCC3CCOC3)c3cnccc23)ccc2c1CCO2 (single isomer, unassigned) [Example 5B] | 7.19 | 7.44 | 
COc1ccc(Cl)cc1C(=O)NCCc1ccc(S(=O)(=O)NC(=O)NC2CCCCC2)cc1 [Glyburide] |  |  | inhibition of IL-1β production in response to the activation of NLRC4 (NLRC4): not NLRC4; inhibition of IL-1β production in response to the activation of NLRP1 (NLRP1): not NLRC4 or NLRP1
O[C@@H]1CCCC[C@H]1Nc1nnc(-c2ccc3cc[nH]c3c2)c2ccncc12 (racemic) [Example 3, rac-(1R,2R)-2-[[1-(1H-Indol-6-yl)pyrido[3,4-d]pyridazin-4-yl]amino]cyclohexanol] | 7.00 | 6.97 | 
Fc1c[nH]c2cc(-c3nnc(NCC4CCOC4)c4cnccc34)ccc12 (single isomer, unassigned) [Example 4B] | 6.68 |  | 
Fc1c[nH]c2cc(-c3nnc(NCC4CCOC4)c4cnccc34)ccc12 (single isomer, unassigned) [Example 4A] | 6.87 |  | 
O=[N+]([O-])C=Cc1ccc2c(c1)OCO2 [3,4-methylenedioxy-β-nitrostyrene] |  |  | NLRP3 inhibition, potency (NLRP3 [3]): limited potency; NLRP3 inhibition, specificity (NLRP3 [3]): nonspecific
Oc1c(-c2nnc(NCC3CCOC3)c3cnccc23)ccc2c1CCO2 (single isomer, unassigned) [Example 5A] | 7.54 | 7.49 | 
